From EP2823816A1, “Inhibitors of Neuropilin and use thereof for the treatment of Neuropilin-related diseases” (Tragex Pharma, priority 2013, dated 2015)

Key:
[1] = system: MDA-MB-231 + control shRNA; assay: Proliferation assay in shRNA-transfected cells; format: cell-based; conditions: Homo sapiens; inhibition of proliferation; clone MDA-MB-231 + control shRNA
Excerpt: (§1) The cell proliferation WST-1 assay is a colorimetric assay for the quantification of cell proliferation and viability, based on the enzymatic cleavage of the tetrazolium salt WST-1 added to the culture medium, to a water soluble colored formazan dye, detected by absorbance at 450 nm, by mitochondrial succinate-tetrazoliumreductase in viable cells. An augmentation in enzyme activity will then lead to an increase in the amount of formazan dye formed, which directly correlates to the number of metabolically active cells in the culture.
(§2) After an incubation period of 72 h, at day 4, were prepared the 19 mL medium with reagent WST-1 1mL ([…]). The medium was removed from the 96 microplate and 200 µL of solution WST-1/medium were added for each well. The cells were incubated at 37°C in a humidified atmosphere of 5% CO2 for 1h30 and the absorbance at 450-655 nm was measured by Microplate Manager 5.2 (Bio-Rad).
The effect of compound 1 of the invention on cell proliferation was tested according to the proliferation assay hereinabove described, in MDA-MB-231 cancer cells transfected with shRNA directed to NRP1 or NRP2 or with control shRNA.

HCT-116 = assay: WST-1 proliferation / cytotoxic test; format: cell-based; conditions: Homo sapiens, Colon, wst-1 cytotoxic test, 72 h
Method: (§3) After observation of cells under the microscope, old media were removed and the adherent cells washed gently twice with PBS (Phosphate Buffer Saline, -Ca^2+, -Mg^2+, Lonza cat n°: 17-512F/12). All cells were detached with 3 ml of trypsin/EDTA (chelator of calcium and magnesium ions) (Lonza), incubated for 5 min at 37°C, and examined using a microscope to ensure that the cells were detached and floating. Then, 3 ml TNS (Trypsin Neutralizing Solution, Lonza, France, cat n° CC-5002) or of culture medium were added to inactivate the trypsin, and the cell suspension was transferred in a falcon tube and centrifuged for 7 min at 1400 rpm. The supernatant was removed and the cell pellet resuspended in […] of culture medium. 50 µL of this solution were transferred in 20 µL of isotonic solution and the cells were counted by count cellular (Beckman Coulter). At day 0, 200 µL of cellular suspension (3.10^3 cells/well for the HUVEC cells, breast cancer cells (MDA-MB-231 1.10^4 cells/well, MDA-MB-468 2.10^4 cells/well,); cervical cancer cells (HeLa 5.000 cells/well); colon cancer cells (HCT-116 5.10^3 cells/well, HCT-29 1.1.10^4 cells/well); pancreas cancer cells (Panc-10.5 1.5.10^4 cells/well); brain cancer cells (U87 5.10^3 cells/well, SH-SYSY 8.10^4 cells/well); Lung cancer cells (A 549 1.10^4 cells/well, NCI-H460 1.10^4 cells/well); fibrosarcoma cells (HT 1080 8.10^3 cells/well); Burkitt's lymphoma cells (DAUDI 3.10^4 cells/well); acute lymphoblastic leukemia cells (CEM 3.10^4 cells/well); chronic myeloid leukemia cells (ERY 5.10^4 cells/well); mantle cell lymphoma (GRANTA 1.10^5 cells/well); B lymphoma cells (VAL 1.10^5 cells/well)) were then plated on 96 well plates and incubated at 37°C in a humidified atmosphere of 5% CO2 for 24 h.
(§4) At day 1, the compound 1 of the invention was added at increasing concentrations (0.1 - 10 µM) in the wells and plates were incubated at 37°C in a humidified atmosphere of 5% CO2 for 72 h.
as §1, §2

Granta-519 = assay: WST-1 proliferation / cytotoxic test; format: cell-based; conditions: Homo sapiens, Mantle cell lymphoma, wst-1 cytotoxic test, 72 h
Method: as §3, §4, §1, §2

MDA-MB-468 = assay: WST-1 proliferation / cytotoxic test; format: cell-based; conditions: Homo sapiens, Breast, wst-1 cytotoxic test, 72 h
Method: as §3, §4, §1, §2

ERY-1 = assay: WST-1 proliferation / cytotoxic test; format: cell-based; conditions: Homo sapiens, Chronic myeloid leukemia, wst-1 cytotoxic test, 72 h
Method: as §3, §4, §1, §2

A549 = assay: WST-1 proliferation / cytotoxic test; format: cell-based; conditions: Homo sapiens, Lung, wst-1 cytotoxic test, 72 h
Method: as §3, §4, §1, §2

SH-SY5Y = assay: WST-1 proliferation / cytotoxic test; format: cell-based; conditions: Homo sapiens, Brain, wst-1 cytotoxic test, 72 h
Method: as §3, §4, §1, §2

NCI-H460 = assay: WST-1 proliferation / cytotoxic test; format: cell-based; conditions: Homo sapiens, Lung, wst-1 cytotoxic test, 72 h
Method: as §3, §4, §1, §2

HT-29 = assay: WST-1 proliferation / cytotoxic test; format: cell-based; conditions: Homo sapiens, Colon, wst-1 cytotoxic test, 72 h
Method: as §3, §4, §1, §2

HT-1080 = assay: WST-1 proliferation / cytotoxic test; format: cell-based; conditions: Homo sapiens, Fibrosarcoma, wst-1 cytotoxic test, 72 h
Method: as §3, §4, §1, §2

U87 = assay: WST-1 proliferation / cytotoxic test; format: cell-based; conditions: Homo sapiens, U-87 MG, Brain, wst-1 cytotoxic test, 72 h
Method: as §3, §4, §1, §2

MDA-MB-231 cells = assay: In vivo xenograft study, tumor growth; conditions: NOD-SCID IL-2Rγ-/- mice, MDA-MB-231 xenograft, 10 or 50 mg/kg, oral gavage three times a week, Figure 5B
Method: Female (NOD-SCID, IL-2Rγ^-/-) mice 5-6 weeks old were injected subcutaneously with MDA-MB-231 cells (5.10^6) at a single site on their right flanks. Tumors were allowed to grow to about 100 mm^3 before being pair-matched by tumor size into treatment groups (8 mice/group). One group was treated with vehicles (8 mice receiving cremofor 12.5%/ethanol 12.5%/ H2O), one group was treated with 10 mg/kg of the compound 1 of the invention (8 mice receiving compound 1 + cremofor 12.5%/ethanol 12.5%/ H2O), one group was treated with 50 mg/kg of the compound 1 of the invention (8 mice receiving compound 1+ cremofor 12.5%/ethanol 12.5%/ H2O). All groups received 3 times a week by oral gavages approximately 100 µL of a solution containing the compound 1 of the invention. Mice were weighed regularly to assess toxicity of the treatments and the tumors were measured with calipers (width x width x length x Pi/6) to determine tumor growth. Mice survival was assessed during the study and metastatic development was investigated in lung, spleen and liver.

HUVEC cells = assay: Adhesion test (crystal violet); format: cell-based; conditions: in vitro, Figure 1A
Method: After observation of cells under the microscope, old media were removed and the adherent cells washed gently twice with PBS (Phosphate Buffer Saline, -Ca^2+, -Mg^2+, Lonza cat n°: 17-512F/12). All cells were detached with 3 ml of trypsin/EDTA (chelator of calcium and magnesium ions) (Lonza), incubated for 5 min at 37°C, and examined using a microscope to ensure that the cells were detached and floating. Then, 3 ml TNS (Trypsin Neutralizing Solution, Lonza, France, cat n° CC-5002) or of culture medium were added to inactivate the trypsin, and the cell suspension was transferred in a falcon tube and centrifuged for 7 min at 1400 rpm. The supernatant was removed and the cell pellet resuspended in […] of culture medium. 50 µL of this solution were transferred in 20 µL of isotonic solution and the cells were counted by count cellular (Beckman Coulter). […]
After an incubation period of 72 h, the adherent cells were fixed with […] paraformaldehyde 3% for 15 min at room temperature. […] The microplate was stirred to obtain a homogenous solution and absorbance was quantified at 580 nm by Microplate Manager 5.2. The percentage of inhibition was calculated as follow: % inhibition = 100-[(DOsample/DOcontrol)*100]. […]

## CCOc1ccccc1NC(=O)c1ccc(C)c(S(=O)(=O)Nc2ccc(C)cc2)c1 [Compound 1, N-(2-ethoxyphenyl)-4-methyl-3-(N-(p-tolyl)sulfamoyl)benzamide]
[1]
  IC50: 0.8 ± 0.05 µM
HCT-116
  IC50: 0.5 ± 0.07 µM
Granta-519
  IC50: 0.5 ± 0.07 µM
MDA-MB-468
  IC50: 0.5 ± 0.06 µM
ERY-1
  IC50: 0.2 ± 0.03 µM
A549
  IC50: 0.4 ± 0.03 µM
SH-SY5Y
  IC50: 0.1 ± 0.02 µM
NCI-H460
  IC50: 0.5 ± 0.07 µM
HT-29
  IC50: 0.5 ± 0.01 µM
HT-1080
  IC50: 0.3 ± 0.01 µM
U87
  IC50: 0.5 ± 0.02 µM
MDA-MB-231 cells
  development of tumors (tumor size): inhibits the development of tumors
HUVEC cells
  adhesion of HUVEC cells: inhibited
